Values after ≈ are worked out from the molar mass of the structure shown. Like-named read-outs stand apart in the source and are kept apart here.
Legend:
[1] = test system: Staphylococcus aureus RN 4220; test: Broth microdilution antibacterial activity (MIC); format: cell-based
Experimental: (§1) Test strains were maintained in MHB (Mueller Hinton broth), and antibacterial activity was measured using a broth microdilution method. After being incubated overnight, each of the test stains was diluted to a population of 2×100,000 cells/ml, and aliquoted in an amount of 100 μl per well into 96-well plates. Complestatin, neuroprotectin A and positive controls such as vancomycin, oxacillin and nofloxacin were treated at concentration with gradual dilution by 2-fold from maximum concentration of 128 μg/ml. Each compound was diluted in dimethylsulxoside (DMSO), and the concentration of DMSO was adjusted to approximately 1/100 before application. After incubation for 20 hrs, absorbance was read at 650 nm to examine the growth of bacterial cells.
(§2) The compounds of the present invention, complestatin and neuroprotectin A were examined for antibacterial activity against vacomycin-resistant bacteria in the same manner as in Example 4, and the results are given in Table 4, below.

VRE 3 = test: Antibacterial activity against vancomycin-resistant bacteria (MIC); format: cell-based; conditions: Enterococcus
Experimental: as §1, §2

VRE 7 = test: as above; format: cell-based; conditions: Enterococcus
Experimental: as §1, §2

VRE 11 = test: as above; format: cell-based; conditions: Enterococcus
Experimental: as §1, §2

VRSA 48 = test: as above; format: cell-based, Vancomycin-resistant S. aureus; conditions: Staphylococcus aureus
Experimental: as §1, §2

[2] = test system: Vancomycin-resistant S. aureus (VRSA) and Vancomycin-resistant Enterococcus (VRE); test: Antibacterial activity, vancomycin-resistant bacteria of Table 4; format: cell-based
Experimental: as §1, §2

QRSA CCARM 3519 = test: Broth microdilution antibacterial activity (MIC); format: cell-based, Quinolone-resistant Staphylococcus aureus; conditions: Staphylococcus aureus, CCARM3519
Experimental: as §1

QRSA CCARM 3505 = test: Broth microdilution antibacterial activity (MIC); format: cell-based, Quinolone-resistant Staphylococcus aureus; conditions: Staphylococcus aureus, CCARM3505
Experimental: as §1

[3] = test system: Entercoccus faecium KCTC 5191; test: Broth microdilution antibacterial activity (MIC); format: cell-based; conditions: Enterococcus faecium, KCTC5191
Experimental: as §1

[4] = test system: Bacillus cereus KCTC 1661; test: Broth microdilution antibacterial activity (MIC); format: cell-based; conditions: KCTC1661
Experimental: as §1

[5] = test system: Bacillus subtilis KCTC 1021; test: Broth microdilution antibacterial activity (MIC); format: cell-based; conditions: KCTC1021
Experimental: as §1

[6] = test system: Staphylococcus epidermidis KCTC 3958; test: Broth microdilution antibacterial activity (MIC); format: cell-based; conditions: KCTC3958
Experimental: as §1

[7] = test system: Staphylococcus aureus 209; test: Broth microdilution antibacterial activity (MIC); format: cell-based
Experimental: as §1

[8] = test system: Entercoccus faecium KCTC 3511; test: Broth microdilution antibacterial activity (MIC); format: cell-based; conditions: Enterococcus faecium, KCTC3511
Experimental: as §1

[9] = test system: Staphylococcus aureus, Bacillus subtilis, Bacillus cereus, Enterococcus faecium and Staphylococcus epidermis, MRSA, QRSA; test: Antibacterial activity, summary over the panel of Table 3; format: cell-based
Experimental: as §1

MRSA CCARM 3506 = test: Broth microdilution antibacterial activity (MIC); format: cell-based, Methicillin-resistant Staphylococcus aureus; conditions: Staphylococcus aureus
Experimental: as §1

MRSA CCARM 3167 = test: Broth microdilution antibacterial activity (MIC); format: cell-based, Methicillin-resistant Staphylococcus aureus; conditions: Staphylococcus aureus
Experimental: as §1

[10] = RN4220, Staphylococcus aureus RN 4220, Table 3, read-out: MIC
[11] = against VRSA and VRE (text summary of Table 4), read-out: MIC
[12] = Entercoccus faecium KCTC 5191, read-out: MIC
[13] = Bacillus cereus KCTC 1661, read-out: MIC
[14] = Bacillus subtilis KCTC 1021, read-out: MIC
[15] = Staphylococcus epidermidis KCTC 3958, read-out: MIC
[16] = Staphylococcus aureus 209, 20 hrs incubation, MHB, read-out: MIC
[17] = Entercoccus faecium KCTC 3511, read-out: MIC

Structure (SMILES)	MIC [1, 10] [µg/mL]	MIC ([1]; S. aureus RN 4220, Table 4) [µg/mL]	MIC (VRE 3; VRE 3, read-out: MIC) [µg/mL]	MIC (VRE 7; VRE 7, read-out: MIC) [µg/mL]	MIC (VRE 11; VRE 11, read-out: MIC) [µg/mL]	MIC (VRSA 48; VRSA 48, read-out: MIC) [µg/mL]	MIC [2, 11] [µg/mL]	MIC (QRSA CCARM 3519; QRSA CCARM 3519, read-out: MIC) [µg/mL]	MIC (QRSA CCARM 3505; QRSA CCARM 3505, read-out: MIC) [µg/mL]	MIC [3, 12] [µg/mL]	MIC [4, 13] [µg/mL]	MIC [5, 14] [µg/mL]	MIC [6, 15] [µg/mL]	MIC [7, 16] [µg/mL]	MIC [8, 17] [µg/mL]	MIC [9] [µg/mL]	MIC (MRSA CCARM 3506; MRSA CCARM 3506, read-out: MIC) [µg/mL]	MIC (MRSA CCARM 3167; MRSA CCARM 3167, read-out: MIC) [µg/mL]	further results
CN1C(=O)C(c2cc(Cl)c(O)c(Cl)c2)NC(=O)C2NC(=O)C(c3cc(Cl)c(O)c(Cl)c3)NC(=O)C(NC(=O)C(=O)c3cc(Cl)c(O)c(Cl)c3)Cc3c[nH]c4cc(ccc34)-c3cc2cc(c3O)Oc2ccc(cc2)CC1C(=O)NC(C(=O)O)c1ccc(O)cc1 (centres unmarked) [Complestatin]	1 (≈ 0.753 µM)	1 (≈ 0.753 µM)	1 (≈ 0.753 µM)	1 (≈ 0.753 µM)	1 (≈ 0.753 µM)	1 (≈ 0.753 µM)	1 (≈ 0.753 µM)	2 (≈ 1.51 µM)	1 (≈ 0.753 µM)	2 (≈ 1.51 µM)	0.5 (≈ 0.376 µM)	0.5 (≈ 0.376 µM)	2 (≈ 1.51 µM)	2 (≈ 1.51 µM)	2 (≈ 1.51 µM)	0.5 to 2 (≈ 0.376 to 1.51 µM)	1 (≈ 0.753 µM)	1 (≈ 0.753 µM)	–
CN1C(=O)C(c2cc(Cl)c(O)c(Cl)c2)NC(=O)C2NC(=O)C(c3cc(Cl)c(O)c(Cl)c3)NC(=O)C(NC(=O)C(=O)c3cc(Cl)c(O)c(Cl)c3)CC3C(=O)Nc4cc(ccc43)-c3cc2cc(c3O)Oc2ccc(cc2)CC1C(=O)NC(C(=O)O)c1ccc(O)cc1 (centres unmarked) [Neuroprotectin A]	1 (≈ 0.744 µM)	1 (≈ 0.744 µM)	1 (≈ 0.744 µM)	1 (≈ 0.744 µM)	1 (≈ 0.744 µM)	1 (≈ 0.744 µM)	1 (≈ 0.744 µM)	2 (≈ 1.49 µM)	1 (≈ 0.744 µM)	2 (≈ 1.49 µM)	0.5 (≈ 0.372 µM)	0.5 (≈ 0.372 µM)	2 (≈ 1.49 µM)	2 (≈ 1.49 µM)	2 (≈ 1.49 µM)	0.5 to 2 (≈ 0.372 to 1.49 µM)	1 (≈ 0.744 µM)	1 (≈ 0.744 µM)	–
CCn1cc(C(=O)O)c(=O)c2cc(F)c(N3CCNCC3)cc21 [Norfloxacin]	1 (≈ 3.13 µM)	1 (≈ 3.13 µM)	50 (≈ 157 µM)	50 (≈ 157 µM)	200 (≈ 626 µM)	200 (≈ 626 µM)	–	125 (≈ 391 µM)	250 (≈ 783 µM)	4 (≈ 12.5 µM)	1 (≈ 3.13 µM)	0.25 (≈ 0.783 µM)	0.5 (≈ 1.57 µM)	0.25 (≈ 0.783 µM)	4 (≈ 12.5 µM)	–	1 (≈ 3.13 µM)	8 (≈ 25.1 µM)	–
Cc1onc(-c2ccccc2)c1C(=O)N[C@@H]1C(=O)N2[C@@H]1SC(C)(C)[C@@H]2C(=O)O [Oxacillin]	0.25 (≈ 0.623 µM)	0.25 (≈ 0.623 µM)	> 200	> 200	> 200	> 200	> 200	0.5 (≈ 1.25 µM)	0.5 (≈ 1.25 µM)	4 (≈ 9.96 µM)	32 (≈ 79.7 µM)	0.25 (≈ 0.623 µM)	0.25 (≈ 0.623 µM)	0.25 (≈ 0.623 µM)	8 (≈ 19.9 µM)	–	500 (≈ 1250 µM)	500 (≈ 1250 µM)	–
CN[C@H](CC(C)C)C(=O)N[C@H]1C(=O)N[C@@H](CC(N)=O)C(=O)N[C@H]2C(=O)N[C@H]3C(=O)N[C@H](C(=O)N[C@H](C(=O)O)c4cc(O)cc(O)c4-c4cc3ccc4O)[C@H](O)c3ccc(c(Cl)c3)Oc3cc2cc(c3O[C@@H]2O[C@H](CO)[C@@H](O)[C@H](O)[C@H]2O[C@H]2C[C@](C)(N)[C@H](O)[C@H](C)O2)Oc2ccc(cc2Cl)[C@H]1O [Vancomycin]	–	1 (≈ 0.69 µM)	–	–	–	–	–	–	–	–	–	–	–	–	–	–	–	–	MIC ([1]; Staphylococcus aureus, RN4220): 1 µg/mL (≈ 0.69 µM); MIC (VRE 3; VRE): > 200 µg/mL; MIC (VRE 7; VRE): > 200 µg/mL; MIC (VRE 11; VRE): > 200 µg/mL; MIC (VRSA 48; VRSA): > 200 µg/mL; MIC ([2]; VRE): > 200 µg/mL; MIC (QRSA CCARM 3519): 1 µg/mL (≈ 0.69 µM); MIC (QRSA CCARM 3505): 1 µg/mL (≈ 0.69 µM); MIC [3]: 1 µg/mL (≈ 0.69 µM); MIC ([4]; Bacillus cereus): 1 µg/mL (≈ 0.69 µM); MIC ([5]; Bacillus subtilis): 0.125 µg/mL (≈ 0.0863 µM); MIC ([6]; Staphylococcus epidermidis): 2 µg/mL (≈ 1.38 µM); MIC ([7]; Staphylococcus aureus, 209, 20 h): 0.5 µg/mL (≈ 0.345 µM); MIC [8]: 2 µg/mL (≈ 1.38 µM); MIC (MRSA CCARM 3506): 0.5 µg/mL (≈ 0.345 µM); MIC (MRSA CCARM 3167): 2 µg/mL (≈ 1.38 µM)
